The text below walks through data of paper PMC7854510 (Molecular microbiology, 2020).

The assay addresses T1, rLacR (UA159) (Streptococcus mutans, UniProt P26422).
T1 sequence (P26422 1-251): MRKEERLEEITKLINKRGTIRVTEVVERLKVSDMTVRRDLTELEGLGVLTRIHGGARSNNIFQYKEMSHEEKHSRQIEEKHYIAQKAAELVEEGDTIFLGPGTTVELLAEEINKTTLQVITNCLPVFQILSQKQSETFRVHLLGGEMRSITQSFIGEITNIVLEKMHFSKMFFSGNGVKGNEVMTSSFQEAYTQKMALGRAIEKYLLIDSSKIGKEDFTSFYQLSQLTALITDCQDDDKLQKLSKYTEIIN
The assay is described as follows: DNase I footprinting by capillary electrophoresis. The assay is classed as binding. Particulars: 5 mM; fluorescent UA159 lacA probe.

Take `O=P(O)(O)OC[C@H]1OC(O)[C@H](O)[C@@H](O)[C@H]1O` (stereo partly shown) [Gal-6-P]: the “DNase I footprinting by capillary electrophoresis (DFACE)” value is listed as “addition of Gal-6-P resulted in the appearance of a DNase I hyper-sensitive site”.
